Experiments:
[1] = pH 7.4
Method: Free DNIC and NanoNO were suspended with PBS buffer or acetic buffer (pH 4.0 or 5.5) and then incubated at 37° C. in a 200 rpm Orbital Shaker. At different time points, the solution was harvested, dissolved in DMSO and analysed by a UV spectrophotometer at 360 nm.
The kinetic profile for the decomposition of DNIC and the concomitant release of NO from NanoNO were evaluated under physiological and acidic pH conditions at 37° C. […] Free-form DNIC and NanoNO were incubated in a PBS buffer or acetic buffer at a pH of 4.0-7.4, and DNIC destruction was measured using a UV spectrophotometer at 360 nm (n=5 independent samples). The results are expressed as percentage of the initial DNIC. **P=0.0094 and ***P=0.0004 compared to NanoNO at a pH of 7.4.
Free-form DNIC and NanoNO were incubated in PBS containing 10% fetal bovine serum at 37° C. DNIC destruction was measured using a UV spectrophotometer at 360 nm. The results are expressed as the percentage of the initial DNIC (n=3 samples). All data are shown as the mean value± the s.e.m.

[2] = mouse, in vivo, iv
Method: The pharmacokinetics and biodistribution of NanoNO in orthotopic murine HCC models generated using HCA-1 were evaluated.
The procedure of pharmacokinetic and tissue distribution study was as follows. C3H/HeNCrNarl male mice with orthotopic implants of HCA-1 cells were injected intravenously with free DNIC (10 mg/kg) or NanoNO (7.5 mg/kg). At different time points, 200 μL of blood was collected from the orbital sinus and mixed with 50 μL of 1000 U/mL heparin (Sigma, USA). For evaluation of tissue distribution, four hours after administration, the mice were sacrificed. The tissues were collected and homogenized in lysis buffer (10 mM Tris-HCl, 1% Triton X-100, 0.1% SDS, 0.1% SDC and 140 mM NaCl). The tissue lysates were kept on ice for 30 min and centrifuged at 25,001 rcf at 4° C. for 30 min, and the supernatants were collected. The DNIC signal was measured by electron paramagnetic resonance (EPR plus, Bruker, Germany). HSCH2CH2OH (1 mM) was added to the serum or tissue lysates to transform all the DNICs into the EPR-active form for analysis. The DNIC concentration was calculated according to a standard curve obtained by the amounts of DNIC or NanoNO.
Non-compartmental analysis was employed for the pharmacokinetic parameter analysis. AUC, area under the curve; CL, clearance; h, hour; t1/2, half-life; Vss, steady state volume of distribution.

SP1 = SP1 luciferase reporter; format: cell-based, murine; details: free-form DNIC 0.5 μM, 24 h, HCA-1 cells
Method: The procedure of DNIC triggered activation of SP1 in HCA-1 HCC cells was as follows. HCA-1 cells expressing SP1 reporter (Qiagen, Germany) were established by transfection using Lipofectamine® 2000 (Thermo Fisher Scientific, USA). The cells were then treated with free-form DNIC. After 24 h incubated, the cells were lysed and luciferase signal was measured by microplate reader (Spark 10M, Tecan, Germany).
Data are pooled from two independent experiments. […] Analysis was performed using two-tailed Mann-Whitney U test.

Macrophage = Macrophage polarization after treatment of DNIC in vitro (qPCR); format: cell-based, human
From the text: The murine hepatocellular carcinoma (HCC) cell line HCA-1 and the human HCC cell lines JHH-7, Hep3B and human lung fibroblasts (HLF) were provided by Dr. Dan Duda (Massachusetts General Hospital, Boston). The human HCC cell line Mahlavu was provided by Dr. Han-Chung Wu (Academia Sinica, Taiwan). The human monocyte cell line THP-1 (ATCC® TIB-202™) was purchased from ATCC. HUVECs (BCRC H-UV001) were obtained from the Bioresource Collection and Research Center, Food Industry Research and Development Institute (Hsinchu, Taiwan). Cell lines were authenticated and tested for mycoplasma. HCA-1 and Mahlavu cells were cultured in high-glucose Dulbecco's modified Eagle's medium (DMEM); JHH-7 and HLF cells were cultured in DMEM/F12 medium; Hep3B cells were cultured in Minimum Essential Medium Alpha (MEMα) (Sigma-Aldrich, St. Louis, Mo.); THP-1 cells were maintained in RPMI-1640 (Corning, N.Y.). All media were supplemented with 10% fetal bovine serum (FBS) and 1% antibiotics (penicillin and streptomycin, HyClone, Logan, Utah). The HUVECs were cultured in Medium 199 (Sigma-Aldrich, St. Louis, Mo.) containing 20% FBS, ECGS (30 μg/mL), heparin (25 U/mL) and L-glutamine (2 mM). THP-1 cells were differentiated into macrophages by 72 h incubation with 20 ng/mL phorbol 12-myristate 13-acetate (PMA, Sigma-Aldrich, St. Louis, Mo.).
(§1) The procedure of reverse transcription quantitative real time PCR was as follows. Total RNA was extracted from HUVECs or flow-sorted tumor-associated macrophages using the RNeasy Mini Kit (Qiagen, Calif., USA). cDNAs were synthesized using the High-Capicity cDNA Reverse Transcription Kit (Applied Biosystems, Calif., USA). Primers specific for Arignase-1, CCL17, CCL22, IL10, MRC1, CXCL9, IL-1β, TNF-α, CXCL-11, NOS2, NOS3, Snail, Slug, Zeb1, Zeb2, Trim28, Fibronectin, Vimentin, E-cadherin, PD-L1, S1PR1, ANGPT1, PDGF-B, VEGFA, ANGPT2, EGF, IL-6, PPARγ, TGFβ, GAPDH and β-actin were used (Table 2), and relative gene expression was determined using Real-Time SYBR Green PCR Master Mix (Applied Biosystems, Calif., USA) on a QPCR System. The comparative threshold cycle method was used to calculate fold change in gene expression, which was normalized to β-actin.

HCA-1 cells [3] = experiment: EMT phenotype under hypoxic conditions, qRT-PCR; format: cell-based, murine; details: hypoxic conditions (1% oxygen), 24 h, dose-dependent manner
Method: The mRNA level was determined by qRT-PCR 24 h after treatment with free DNIC at different doses (control and hypoxia, n=3; 0.5 and 1 μM DNIC, n=5; 5 μM DNIC, n=6 biologically independent samples).

PD-L1 = PD-L1 mRNA and protein expression in HCC cells in vitro; format: cell-based, murine and human; details: dose-dependent manner
Method: The procedure of Western blot analysis was as follows. Cells or tissue were lysed in RIPA lysis buffer. Cell lysates were separated on a 10% acrylamide gel and transferred to a PVDF membrane. Membranes were blocked for 1 h in 5% skim milk and then incubated overnight with polyclonal antibodies against PD-L1 and R-actin (clone 122M4782, Cell Signaling, Danvers, Mass.).
FIG. 6F is a data diagram showing reprogramming of tumor microenvironment by NanoNO. FIG. 6G is a Western blot staining diagram showing reprogramming of tumor microenvironment by NanoNO. PD-L1 mRNA and protein expression in HCA-1 cells was analysed by qRT-PCR (n=3 biologically independent samples) (FIG. 6F) and Western blot analysis (FIG. 6G) After treatment with free-form DNIC in vitro. The experiments were repeated twice independently.

[4] = test system: orthotopic HCA-1 HCC tumors; experiment: Tissue distribution of DNIC and NO release in tumors; set-up: species or system C3H mice; details: mouse, in vivo, iv
Method: ID/g, injected dose per gram. *P=0.0159 compared to Free DNIC. […] Next, NBD-labeled DNIC was used to track the intracellular delivery of free DNIC and NanoNO, and the NO-specific fluorescence probe DAR-1 was used to assess the penetration of NO released from free DNIC and NanoNO in HCC. In FIG. 4F, microphotographs of HCC tumors show DNIC uptake (green) and NO release (red) four hours after intravenous administration of NBD-DNIC loaded in NanoNO or free-form NBD-DNIC (7.5 mg/kg) to mice. 4',6-diamidino-2-phenylindole (DAPI, a fluorescent dye capable of binding strongly to DNA), blue. Scale bar, 50 μm. The experiments were repeated twice independently. […] NO release (red) was detected using DAR-1 in tumors four hours after intravenous administration of NanoNO or free-form DNIC (10 mg/kg) in mice. The arrowheads indicate perivascular NO gradients. Scale bar, 20 μm. The release of NO was imaged and quantified with a Zeiss LSM 780 confocal microscope (n=7 section images from four mice). The experiments were repeated twice independently. The procedure of distribution of NO in the tumor area was as follows. […] Four hours after administration, mice were sacrificed. Tumor tissues were embedded in Tissue-Tek (OCT compound) and immediately frozen in liquid nitrogen. Tumor tissue was sectioned (10 μm thick) onto slides. […]

HUVECs = experiment: Expression of pro-angiogenic and vessel stabilizing factors, RT-qPCR; format: cell-based, human; details: DNIC 1 μM, 24 h
From the text: as §1
NO acts as a crucial modulator in regulating angiogenesis and maintaining the vasculature function in TME. […]
FIG. 5A is a data diagram of normalized tumor blood vessels in HCC by low-dose NanoNO. Expression of the pro-angiogenic and vessel stabilizing factors in HUVECs 24 h after treatment with DNIC (1 μM) measured by RT-qPCR. The results are expressed as the fold change relative to the untreated control group (n=9 biologically independent samples). […]

[5] = Cumulative release of NO, DAR-1 fluorescence probe; format: physicochemical; details: PBS pH 7.4, 37° C.
Method: The cumulative release of NO from NanoNO over time was assessed using an NO-specific 4,5-diamino-N,N,N′,N′-tetraethylrhodamine (DAR-1) fluorescence probe.
The release profile of NO from free DNIC or NanoNO was investigated at pH 7.4 at 37° C. Briefly, free DNIC and NanoNO were suspended with PBS buffer. DAR-1 at a final concentration of 20 μM was added to the solution and then incubated at 37° C. on a 200 rpm orbital shaker. At different time points, the solution was harvested, and the fluorescence intensity (excitation at 560 nm, emission at 595 nm) was measured using a microplate reader (Spark 10M, Tecan, Germany).
FIG. 3 is a data diagram of the effect of NanoNO on the cumulative release of nitric oxide. NO release from free-form DNIC and NanoNO under physiological conditions (pH of 7.4). Free-form DNIC and NanoNO were incubated in PBS buffer at pH 7.4, and the release of NO was measured as the fluorescence intensity (excitation at 560 nm and emission at 595 nm) of the NO-specific probe DAR-1. The results are expressed as a fold change compared to time 0 (free DNIC, n=5; NanoNO; n=4 independent samples). *P=0.0159 compared to free DNIC. FL: fluorescence intensity.

HCA-1 cells [6] = experiment: Invasion and wound healing assays; format: cell-based, murine; details: 72 h after treatment
Method: The procedure of transwell invasion assay was as follows. Cell invasion was examined using a QCM ECMatrix 24-well Cell Invasion Assay (EMD Millipore, USA). HCA-1 cells were seeded in the top chamber without serum. DMEM-H containing 10% FBS was added to the lower chamber. Following incubation for 72 h, the cells on the lower surface were fixed with 4% paraformaldehyde (PFA, in PBS). The chambers were rinsed in PBS and stained with 1% crystal violet (in 90% ethanol) for 30 min. For each experimental condition, 10 image fields were photographed by microscopy (IX83, Olympus, Japan) and quantified.
FIGS. 7A and 7B show free-form DNIC modulates the TME in metastatic lesions and suppresses metastatic progression of HCC. 7A-7B, Invasion (7A) and wound healing assays (7B) of HCA-1 cells were performed 72 h after treatment with free DNIC at different doses. The experiments were repeated twice independently.

With `O=[N][Fe]1([N]=O)[S](CCO)[Fe]([N]=O)([N]=O)[S]1CCO` [Free DNIC, Fe(μ-SCH2CH2OH)2(NO)4] the “half-life of DNIC (DNIC destruction)” value [1] was 3.9 ± 1.5 h, the CL [2] was 0.46 mL/min/kg and the Vss [2] was 0.0327 L/kg. The t1/2 [2] was 1.27 h, the SP-1 luciferase activity (SP1) was “significantly decreased” and the “macrophage polarization in vitro” value (Macrophage) was “did not directly affect macrophage polarization”. For the same compound, the “Gene expression Arg-1 (M2 type)” value (Macrophage; DNIC 0.5 μM) was 1.08 ± 0.26, the “Gene expression CCL-17 (M2 type)” value (Macrophage; DNIC 0.5 μM) was 1.06 ± 0.13 and the “Gene expression CCL-22 (M2 type)” value (Macrophage; DNIC 0.5 μM) was 0.96 ± 0.11. The “Gene expression CXCL-9 (M1 type)” value (Macrophage; DNIC 0.5 μM) was 1.22 ± 0.17, the “Gene expression CXCL-11 (M1 type)” value (Macrophage; DNIC 0.5 μM) was 2.02 ± 0.79 and the “Gene expression IL-1b (M1 type)” value (Macrophage; DNIC 0.5 μM) was 1.13 ± 0.07. The “Gene expression IL-6 (M1 type)” value (Macrophage; DNIC 0.5 μM) was 1.16 ± 0.03, the “Gene expression MRC1 (M2 type)” value (Macrophage; DNIC 0.5 μM) was 1.00 ± 0.17 and the “Gene expression PPARγ (M2 type)” value (Macrophage; DNIC 0.5 μM) was 0.92 ± 0.05. The “Gene expression TGF-β (M2 type)” value (Macrophage; DNIC 0.5 μM) was 1.11 ± 0.06, the “Gene expression TNF-α (M1 type)” value (Macrophage; DNIC 0.5 μM) was 0.95 ± 0.08 and the “Gene expression iNOS (M1 type)” value (Macrophage; DNIC 0.5 μM) was 1.10 ± 0.35. The “Gene expression Arg-1 (M2 type)” value (Macrophage; DNIC 1 μM) was 1.27 ± 0.28, the “Gene expression CCL-17 (M2 type)” value (Macrophage; DNIC 1 μM) was 1.19 ± 0.27 and the “Gene expression CCL-22 (M2 type)” value (Macrophage; DNIC 1 μM) was 1.07 ± 0.22. The “Gene expression CXCL-9 (M1 type)” value (Macrophage; DNIC 1 μM) was 1.22 ± 0.53, the “Gene expression CXCL-11 (M1 type)” value (Macrophage; DNIC 1 μM) was 1.85 ± 0.72 and the “Gene expression IL-1b (M1 type)” value (Macrophage; DNIC 1 μM) was 1.21 ± 0.04. The “Gene expression IL-6 (M1 type)” value (Macrophage; DNIC 1 μM) was 1.27 ± 0.08, the “Gene expression IL-10 (M2 type)” value (Macrophage; DNIC 1 μM) was 1.22 ± 0.14 and the “Gene expression MRC1 (M2 type)” value (Macrophage; DNIC 1 μM) was 1.19 ± 0.16. The “Gene expression PPARγ (M2 type)” value (Macrophage; DNIC 1 μM) was 0.91 ± 0.13, the “Gene expression TGF-β (M2 type)” value (Macrophage; DNIC 1 μM) was 0.95 ± 0.03 and the “Gene expression TNF-α (M1 type)” value (Macrophage; DNIC 1 μM) was 0.94 ± 0.11. The “Gene expression iNOS (M1 type)” value (Macrophage; DNIC 1 μM) was 0.93 ± 0.47, the “EMT markers and E-cadherin expression” value (HCA-1 cells [3]) was “prevented the increase in epithelial-mesenchymal transition (EMT) markers” and the “PD-L1 expression in murine and human HCC cells in vitro” value (PD-L1) was “significantly reduced PD-L1 expression”. The “accumulation of DNIC in HCC tumors” value [4] was “poorly delivered and accumulated in the tumor”, the “expression of pro-angiogenic genes (VEGF, ANGPT2, and EGF)” value (HUVECs) was “downregulated” and the “expression of vessel maturation-related genes (S1PR1 and ANGPT1)” value (HUVECs) was “significantly upregulated”. The “in vitro release of NO” value [5] was “proceeded at a rapid rate during the first two hours” and the “migration and invasion of HCA-1 cells” value (HCA-1 cells [6]) was “significantly inhibited the migration and invasion”.

— US11517588B2, “Nanoparticle, preparation process and uses thereof” (National Tsing Hua University, priority 2019, dated 2022)
